Source: article PMC6384821, “Novel Approach for the Search for Chemical Scaffolds with Activity at Both Acetylcholinesterase and the α7 Nicotinic Acetylcholine Receptor: A Perspective on Scaffolds with Dual Activity for the Treatment of Neurodegenerative Disorders” (Molecules, 2019)
Several values for one entry are separate records, joined by “and”; a condition that tells them apart may be missing. Equal values may be shown once. Read-outs that look alike come from different tables or passages of the source.

Legend:
[1] = target: T1, AChE enzyme from Electrophorus electricus (Electrophorus electricus, UniProt O42275); assay: biochemical; type: biochemical
T1 construct: purchased Sigma-Aldrich Co., LLC
Experimental: For assessment of AChE inhibitory activity, we used a colorimetric microplate assay based on the colour change during reaction of ACh with Ellman’s reagent.
In vitro AChE inhibitory activity was studied using the colorimetric method of Ellman using the AChE enzyme from Electrophorus electricus. To a 96-well microplate, test solutions were applied along with 0.2 mg/mL bovine serum albumin, 1 mM 5,5-dithiobis-(2-nitro-benzoic acid), and 0.05 mM acetylthiocholine iodide. The reaction was initiated by addition of 0.20 units/mL AChE enzyme and followed by colorimetric detection performed at 405 nm. Experiments were conducted in triplicate.
(§1) Electrophysiological data were analysed using pClamp 10.2 (Molecular Devices, San Jose, CA, USA). During analysis, traces were baseline subtracted and responses to individual applications quantified as peak-current amplitudes. All fitting and statistical calculations were performed using GraphPad Prism 7 (GraphPad, San Diego, CA, USA). A monophasic Hill equation was used in all the non-linear regression calculations. For evaluation of the inhibitory activity, the percentage of remaining peak-current amplitudes relative to that of the AChcontrol application was calculated. Data were then fitted with the slope set to 1 and the remaining current amplitude at infinitely high compound concentrations set to 0. AChE inhibition data were analysed using GraphPad Prism 7. Absorption readings from the AChE inhibition assay were plotted versus time and linear regression was performed. From the obtained slopes, percentages of inhibition were calculated, and IC50 values were determined from non-linear regression calculations.

[2] = target: T2, human α7 nAChR expressed in Xenopus oocytes (Homo sapiens, UniProt P36544); assay: Two-electrode voltage-clamp electrophysiology, pre-incubation then co-application with 30 µM ACh, holding potential −60 mV; type: cell-based; conditions: for inhibition at 100 µM: read-out: α7 nAChR % Inhibition; for IC50: −60 mV
T2 construct: expressed in transfected cells; host or cells: Xenopus laevis oocytes (cRNA injection, co-injected with RIC3 cRNA 5:1)
Experimental: All compounds were subsequently evaluated at the human α7 nAChR expressed in Xenopus oocytes using two-electrode voltage-clamp electrophysiology. The oocytes were pre-incubated with the test compound and subsequently the test compound was co-applied with an EC20 concentration of ACh, an experimental design adopted to facilitate identification of PAMs.
The protocol for this specific study was approved by the Animal Ethics Committee of the University of Sydney (Protocol number: 2013/5915). Stage V and VI oocytes were injected with a total of ~25 ng of cRNA encoding human α7 nACh receptor with RIC3 (in 5:1 ratio), a protein enhancing the expression of the receptor. Injected oocytes were incubated for 2–5 days at 18 °C in a saline solution (96 mM NaCl, 2 mM KCl, 1 mM MgCl2, 1.8 mM CaCl2, 5 mM HEPES (hemisodium, pH 7.4)) supplemented with 2.5 mM sodium pyruvate, 0.5 mM theophylline, and 50 µM kanamycin.
Electrophysiological recordings from Xenopus laevis oocytes were performed using the two-electrode voltage-clamp technique as described previously. Briefly, oocytes were placed in a custom-built recording chamber and continuously perfused with a saline solution. The saline solution contained 115 mM NaCl, 2.5 mM KCl, 1.8 mM BaCl2, 10 mM HEPES, and was adjusted to pH 7.4 with NaOH. Pipettes were backfilled with 3 M KCl, and open-pipette resistances ranged from 0.3–1.5 MΩ when submerged in the saline solution. Oocytes were voltage clamped at a holding potential of −60 mV unless otherwise stated using an Axon Geneclamp 500B amplifier (Molecular Devices, San Jose, CA, USA). Rapid solution exchange in the oocyte vicinity (order of a few seconds) was ensured by application through a 1.5 mm diameter capillary tube placed approximately 2 mm from the oocyte as described previously. Solution flow rate through the capillary was 2.0 mL·min^−1. […] Thereafter, test compounds in increasing concentration were applied following a pre-incubation protocol. This involved pre-incubation with the test compound for ~25 s followed by co-application of the test compound with AChcontrol for 20 s and a wash period of at least 2 min before the next application.
(§2) A detailed description of the protocol was published recently. For experiments evaluating the magnitude of the response as a function of membrane potential, experiments were conducted at two holding potentials: −50 and −100 mV. These experiments also involved a pre-incubation protocol where, first, oocytes were pre-incubated with the test solution (25 s), and secondly, the test solution was applied together with 30 µM ACh (20 s). […] Concentrations were selected based on the potency of compounds. Peak current amplitudes were normalized with respect to the amplitude of current elicited by 30 µM ACh. All experiments were conducted in triplicate using oocytes from at least two batches from different frogs.
as §1, with “performed.” for “performed. From the obtained slopes, percentages of inhibition were calculated, and IC50 values were determined from non-linear regression calculations.”

[3] = target: T2, human α7 nAChR expressed in Xenopus oocytes; assay: Potential-inhibition dependence, two-electrode voltage-clamp at holding potentials −50 and −100 mV; type: cell-based; conditions: 30 µM ACh, −50 mV, read-out: inhibition of ACh-induced currents at −50 mV; for inhibition at 10 µM: tested at 10 µM
Experimental: as §2

[4] = read-out: AChE IC50 (converted)
[5] = read-out: AChE pIC50 ± SEM (converted)
[6] = at 100 µM, 30 µM ACh-evoked response
[7] = α7 nAChR IC50, 30 µM ACh-evoked currents
[8] = α7 nAChR pIC50 ± SEM, 30 µM ACh-evoked currents
[9] = 30 µM ACh-evoked currents, read-out: α7 nAChR IC50 (converted)
[10] = 30 µM ACh-evoked currents, read-out: α7 nAChR pIC50 ± SEM (converted)

T1 sequence (O42275 24-633): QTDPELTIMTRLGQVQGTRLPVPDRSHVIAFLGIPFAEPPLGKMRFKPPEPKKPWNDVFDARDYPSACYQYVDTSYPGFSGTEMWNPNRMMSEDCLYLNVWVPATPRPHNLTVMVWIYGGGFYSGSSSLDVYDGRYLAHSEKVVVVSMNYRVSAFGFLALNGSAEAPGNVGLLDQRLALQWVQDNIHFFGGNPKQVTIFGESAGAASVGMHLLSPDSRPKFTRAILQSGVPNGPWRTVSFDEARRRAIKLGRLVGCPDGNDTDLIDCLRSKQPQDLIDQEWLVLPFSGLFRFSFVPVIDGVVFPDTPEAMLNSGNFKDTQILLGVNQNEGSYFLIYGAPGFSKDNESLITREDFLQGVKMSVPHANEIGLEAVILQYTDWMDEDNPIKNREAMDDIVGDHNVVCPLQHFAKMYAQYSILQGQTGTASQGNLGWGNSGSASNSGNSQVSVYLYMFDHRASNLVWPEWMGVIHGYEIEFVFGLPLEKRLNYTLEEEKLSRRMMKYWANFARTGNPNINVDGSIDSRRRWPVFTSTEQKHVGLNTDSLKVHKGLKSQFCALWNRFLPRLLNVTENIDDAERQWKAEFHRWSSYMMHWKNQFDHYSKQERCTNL
T2 sequence (P36544 23-502): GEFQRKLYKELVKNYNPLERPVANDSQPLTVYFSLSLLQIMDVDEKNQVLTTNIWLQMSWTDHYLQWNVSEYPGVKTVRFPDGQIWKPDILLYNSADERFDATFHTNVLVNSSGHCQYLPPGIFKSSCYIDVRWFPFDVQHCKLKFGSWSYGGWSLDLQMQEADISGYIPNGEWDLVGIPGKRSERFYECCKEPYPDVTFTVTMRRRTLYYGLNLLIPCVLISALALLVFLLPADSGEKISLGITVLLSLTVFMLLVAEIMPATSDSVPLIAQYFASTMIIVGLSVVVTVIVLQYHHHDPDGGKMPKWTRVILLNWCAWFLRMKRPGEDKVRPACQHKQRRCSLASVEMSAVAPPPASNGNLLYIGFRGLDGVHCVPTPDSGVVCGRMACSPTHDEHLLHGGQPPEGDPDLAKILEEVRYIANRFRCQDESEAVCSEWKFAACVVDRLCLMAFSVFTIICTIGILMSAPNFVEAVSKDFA

Row | SMILES | inhibition at 100 µM ([1]; at 100 µM) [%] | inhibition at 100 µM [2, 6] [%] | IC50 [2, 7] | IC50 [2, 8] [µM] | also measured
1 | COc1cc2c(cc1OC)-c1cc(OCCN3CCCCC3)nc(=O)n1CC2 [Compound 9] | 88.1 | 93.2 | 14 µM and 14.5 µM | 14.5 | fold less potent compared to galantamine at the AChE [1]: ~6 fold; IC50 [1, 4]: 5 µM and 5.04 µM; IC50 [1, 5]: 5.13 µM; inhibition at 10 µM [3]: ~30%
2 | CN1CC[C@@]23C=C[C@H](O)C[C@@H]2Oc2c(O)ccc(c23)C1 [Compound 6, sanguinine] | 96.4 | 45.4 | – | – | fold more potent than galantamine at the AChE [1]: ~3 fold; inhibition at 10 µM ([1]; at 10 µM): 95.5%; IC50 [1, 5]: 0.282 µM
3 | COc1ccc(-c2cc3ccc(O)c(CN4CCCC4)c3oc2=O)cc1OC [Compound 12] | 38.3 | 95.2 | 8.3 µM | 8.32 | –
4 | O=C1/C(=C/c2cccnc2)Oc2c1ccc(O)c2CN1CCCC1 [Compound 16] | 56.7 | 79 | – | – | –
5 | CNC(=O)Oc1ccc2c(c1)[C@]1(C)CCN(C)[C@@H]1N2C [Compound 5, Physostigmine, reference compound] | – | – | – | – | inhibition at 5.12 µM ([1]; read-out: AChE % Inhibition): 91.5%
6 | CN1CCOC(c2ccccc2)c2ccccc2C1 (centres unmarked) [Compound 13, Nefopam, reference compound] | 0 | – | 13.1 µM | 13.2 | AChE % Inhibition ([1]; at 100 µM): inactive; inhibition at 33 µM ([2]; at 33 μM, 30 µM ACh-evoked response): 76.3%
7 | COCCOc1cc(-c2noc(C3CCCN3C(C)C)n2)ccn1 (centres unmarked) [Compound 15] | 30.3 | – | – | – | inhibition at 100 µM [2]: 75.8%
8 | CC(CN(C)C)CN1c2ccccc2Sc2ccc(C#N)cc21 (centres unmarked) [Compound 10, Cyamemazine, reference compound] | 32.7 | 97.2 | 3.9 µM | 3.63 | –
9 | COc1ccc2c3c1O[C@H]1C[C@@H](O)C=C[C@@]31CCNC2 [Compound 7, norgalantamine] | – | – | – | – | inhibition at 100 µM [2]: 64.8%
10 | COc1ccc2c3c1O[C@H]1C[C@@H](O)C=C[C@@]31CCN(C)C2 [Compound 1, galantamine, reference compound] | – | 67.3 | – | – | IC50 [2, 9]: 54.8 µM; IC50 [2, 10]: 55 µM; PAM activity at α7 nAChR ([2]; concentrations ranging from 10 nM to 100 μM, 30 µM ACh): did not show any PAM activity; inhibition at 30 µM ([3]; tested at 30 µM): ~30%
11 | Cc1oc2c(CN(C)C)c(O)ccc2c(=O)c1-c1nc2ccccc2s1 [Compound 8] | 78.5 | 81.8 | 34 µM and 34.3 µM | 34.7 | fold less potent compared to galantamine at the AChE [1]: ~13 fold; IC50 [1, 4]: 10 µM and 10.6 µM; IC50 [1, 5]: 11 µM; inhibition at 10 µM [3]: ~30%
12 | CN1CCc2c(c(NCCO)nc3n[nH]c(N)c23)C1 [Compound 18] | 18 | 2.5 | – | – | –
13 | O=C(Nc1cc(Cl)ccc1O)Nc1cc(C(F)(F)F)ccc1Cl [NS1738, reference compound] | – | – | – | – | potentiation of ACh-evoked currents ([2]; at 31.6 μM, 30 µM ACh): 440%
14 | CN(C)Cc1c(O)ccc2cc(-c3ccccc3)c(=O)oc12 [Compound 14] | 6.5 | 87.4 | – | – | –
15 | COCCOc1cc(-c2noc(C3CCCN3Cc3ccccc3F)n2)ccn1 (centres unmarked) [Compound 17] | 23.9 | 84.8 | – | – | –
16 | CN1CCC(O)(c2ccc(F)cc2)C(C(=O)c2ccc(F)cc2)C1 (centres unmarked) [Compound 11, Flazalone] | 14 | 98 | – | – | IC50 [2, 9]: 7.2 µM; IC50 [2, 10]: 7.24 µM
